# Article PMC12457078, “Inhibition of soluble epoxide hydrolase in endotoxin induced pig lung injury” (Frontiers in Pharmacology, 2025)
# Values joined by “and” are separate entries in the source; they are usually repeats but may differ in a detail not shown here. Equal entries are not always repeated.
# Test system: sEH
# Assay: oxylipin analysis, epoxide/diol ratios (target engagement)
# Type: in vivo, pig
# Parameters: 14,15-DiHETE: unit not given beside the values; 12,13-DiHOME / 9,10-DiHODE / 11,12-DiHETrE / 14,15-DiHETrE / 10,11-DiHDPE / 19,20-DiHDPE / 13-HODE / 5-HETE / 11-HETE / 12-HETE / 5-HEPE / 9(10)-EpOME / 12(13)-EpOME / EKODE / 11(12)-EpETE: unit not given here
# Description: All animals were monitored with pulse oximetry, heart rate, ECG, systemic arterial blood pressure (ABP), pulmonary arterial pressure (PAP), central venous pressure (CVP) temperature, tidal volumes, respiratory rate and end tidal carbon dioxide. At baseline, and at 3 h, 6 h and at the end of the experiment, pulmonary capillary wedge pressure (PCWP) was measured together with arterial and venous blood gas analyses, as well as cardiac output calculations. Routine chemistry, including creatinine, bilirubin, glucose, electrolytes were collected at baseline and at the end of the experiment (Vetscan VS2®, Abaxis, Griesheim, Germany). Blood samples for measurement of AEPU plasma concentrations, as well as oxylipins (i.e., EpETrEs and their DiHETrE corresponding diols as well as related compounds with other polyunsaturated fatty acid precursors), were collected at baseline, 6 h and at the end of the experiment.
# This meant nine subjects in each group to achieve 90% power of detecting a difference of this size given α = 0.05. Anticipating that not all experiments would reach completion, we used a sample size of 22. The results were analyzed using SPSS Statistics, version 24 (IBM Corp., Armonk, N.Y., United States). Normality was examined with the Shapiro-Wilk test, together with examination of histograms of data. Continuous variables were compared using Student’s t-test or Mann Whitney U test, as appropriate. Categorical variables were compared using Fischer’s exact test. Statistical significance was set at α < 0.05. Oxylipins with at least 80% of observations above limit of detection at both timepoints were included in pairwise comparisons of ratios and fold-change evaluations where observations below limit of detection (LOD) were substituted with 0.5 x LOD.
# [1] = animal 22, time 6, sample Schwein38
smiles,measurement,setting,value
CCOCCOCCOCCCCCNC(=O)NC12CC3CC(CC(C3)C1)C2 [sEH-i],8(9)-EpETrE,[1],<LOD
same,"8,9-DiHETE",[1],<LOD
same,"8,9-DiHETrE",[1],0.0757
same,8-HETE,[1],0.0546
same,9(10)-EpODE,[1],0.22
same,9(10)-EpOME,[1],0.65
same,"9,10,13-TriHOME",[1],4.88
same,"9,10-DiHODE",[1],0.22
same,"9,10-DiHOME",[1],1.64
same,"9,12,13-TriHOME",[1],<LOD
same,9-HETE,[1],<LOD
same,9-HODE,[1],3.67
same,9-HOTrE,[1],0.7165
same,9-oxo-ODE,[1],<LOD
same,10(11)-EpDPE,[1],<LOD
same,"10,11-DiHDPE",[1],0.03
same,11(12)-EpETE,[1],0.07931
same,11(12)-EpETrE,[1],0.0369
same,"11,12-DiHETE",[1],0.0372
same,"11,12-DiHETrE",[1],0.80
same,11-HETE,[1],0.10
same,12(13)-EpODE,[1],0.32
same,12(13)-EpOME,[1],1.76
same,"12,13-DiHODE",[1],0.31
same,"12,13-DiHOME",[1],3.15
same,12-HEPE,[1],0.0345
same,12-HETE,[1],0.2294
same,12-oxo-ETE,[1],2.84
same,13(14)-EpDPE,[1],<LOD
same,"13,14-DiHDPE",[1],0.13
same,13-HODE,[1],19.79
same,13-HOTrE,[1],1.01
same,13-oxo-ODE,[1],<LOD
same,14(15)-EpETE,[1],<LOD
same,14(15)-EpETrE,[1],0.09
same,"14,15-DiHETrE",[1],1.47
same,15(16)-EpODE,[1],4.31
same,"15,16-DiHODE",[1],14.18
same,15-HEPE,[1],<LOD
same,15-HETE,[1],0.27
same,15-HETrE,[1],0.12
same,15-oxo-ETE,[1],0.03
same,16(17)-EpDPE,[1],<LOD
same,"16,17-DiHDPE",[1],0.28
same,17(18)-EpETE,[1],<LOD
same,"17,18-DiHETE",[1],1.29
same,17-HDoHE,[1],<LOD
same,19(20)-EpDPE,[1],<LOD
same,"19,20-DiHDPE",[1],1.67
same,20-HETE,[1],0.10
same,EKODE,[1],0.30
same,LTB4,[1],<LOD
same,PGD2,[1],<LOD
same,PGE2,[1],<LOD
same,PGF2a,[1],0.18
same,Resolvin D1,[1],<LOD
same,Resolvin D2,[1],<LOD
same,TXB2,[1],0.45
same,"14,15-DiHETE","animal 22, time 6, sample Schwein38, high blanks",0.2142
same,5(6)-EpETrE,"time 0, individual pigs",<LOD
same,"5,6-DiHETrE","time 0, individual pigs",<LOD
same,5-HEPE,"time 0, individual pigs",0.12 and 0.10 and 0.0352 and 0.0647 and 0.04
same,5-HETE,"time 0, individual pigs",0.3505 and 0.4442 and 0.2569 and 0.292 and 0.2018
same,5-oxo-ETE,"time 0, individual pigs",<LOD and 0.13 and 0.12
same,7(8)-EpDPE,"time 0, individual pigs",<LOD
same,"7,8-DiHDPE","time 0, individual pigs",<LOD
same,8(9)-EpETE,"time 0, individual pigs",<LOD
same,8(9)-EpETrE,"time 0, individual pigs",<LOD
same,"8,9-DiHETE","time 0, individual pigs",<LOD
same,"8,9-DiHETrE","time 0, individual pigs",0.05 and 0.0422 and <LOD and 0.06
same,8-HETE,"time 0, individual pigs",0.06 and 0.08 and 0.053 and 0.0429
same,9(10)-EpODE,"time 0, individual pigs",0.38 and 0.25 and <LOD
same,9(10)-EpOME,"time 0, individual pigs",0.98 and 0.51 and 0.65 and 0.99 and 0.62
same,"9,10-DiHODE","time 0, individual pigs",0.22 and 0.21 and 0.10 and 0.16 and 0.12
same,"9,10-DiHOME","time 0, individual pigs",1.61 and 1.57 and 0.78 and 1.46 and 0.91
same,9-HETE,"time 0, individual pigs",<LOD
same,9-HODE,"time 0, individual pigs",8.25 and 8.10 and 3.23 and 6.40 and 4.24
same,9-HOTrE,"time 0, individual pigs",1.27 and 1.28 and 0.79 and 0.81 and 0.6856
same,9-oxo-ODE,"time 0, individual pigs",<LOD
same,10(11)-EpDPE,"time 0, individual pigs",<LOD
same,"10,11-DiHDPE","time 0, individual pigs",<LOD
same,11(12)-EpETE,"time 0, individual pigs",0.1253 and 0.08781 and 0.1311 and 0.1265 and 0.1028
same,11(12)-EpETrE,"time 0, individual pigs",<LOD and 0.02 and 0.0347 and 0.03
same,"11,12-DiHETE","time 0, individual pigs",<LOD and 0.0219
same,"11,12-DiHETrE","time 0, individual pigs",0.32 and 0.22 and 0.18 and 0.46 and 0.23
same,11-HETE,"time 0, individual pigs",0.13 and 0.12 and 0.05 and 0.0453
same,12(13)-EpODE,"time 0, individual pigs",0.71 and 0.48 and <LOD and 0.61 and 0.44
same,12(13)-EpOME,"time 0, individual pigs",3.24 and 1.63 and 2.31 and 2.28 and 1.75
same,"12,13-DiHODE","time 0, individual pigs",0.45 and 0.48 and 0.25 and 0.29
same,"12,13-DiHOME","time 0, individual pigs",6.90 and 6.98 and 3.85 and 4.66 and 3.09
same,12-HEPE,"time 0, individual pigs",0.04 and <LOD and 0.0173
same,12-HETE,"time 0, individual pigs",0.1828 and 0.38 and 0.09618 and 0.1256 and 0.03983
same,12-oxo-ETE,"time 0, individual pigs",<LOD
same,13(14)-EpDPE,"time 0, individual pigs",<LOD
same,"13,14-DiHDPE","time 0, individual pigs",0.05 and 0.018 and <LOD and 0.06 and 0.0275
same,13-HODE,"time 0, individual pigs",29.61 and 29.96 and 13.26 and 18.81 and 12.94
